Earlier results in patent US20060194234A1, “Methods for identifying small molecules that bind specific RNA structural motifs” (PTC Therapeutics, Inc., priority 2001, published 2006).

What was measured:
[1] = test system: IIB (or RRE) region of HIV RNA; details: appears to result from competitive binding directly to the RRE RNA structural motif
[2] = test system: 60-mer from ribosomal RNA; details: literature statement in background

| block of the binding of Rev to its viral recognition element in the IIB (or RRE) region of HIV RNA [1] | binding to a 60-mer from ribosomal RNA [2] | Compound |
| --- | --- | --- |
| can block the binding | – | NC[C@@H]1O[C@H](O[C@H]2[C@@H](O)[C@H](O[C@@H]3[C@@H](O)[C@H](N)C[C@H](N)[C@H]3O[C@H]3O[C@H](CN)[C@@H](O)[C@H](O)[C@H]3N)O[C@@H]2CO)[C@H](N)[C@@H](O)[C@@H]1O [neomycin B] |
| can block the binding | – | NC[C@H]1O[C@H](O[C@H]2[C@H](O)[C@@H](O[C@H]3O[C@H](CO)[C@@H](O)[C@H](N)[C@H]3O)[C@H](N)C[C@@H]2N)[C@H](N)C[C@@H]1O [tobramycin] |
| – | binds tightly | thiostreptone |

| Compound | block of the binding of Rev to its viral recognition element in the IIB (or RRE) region of HIV RNA [1] | binding to a 60-mer from ribosomal RNA [2] |
| --- | --- | --- |
| NC[C@@H]1O[C@H](O[C@H]2[C@@H](O)[C@H](O[C@@H]3[C@@H](O)[C@H](N)C[C@H](N)[C@H]3O[C@H]3O[C@H](CO)[C@@H](O)C[C@H]3N)O[C@@H]2CO)[C@H](N)[C@@H](O)[C@@H]1O[C@H]1O[C@H](CO)[C@@H](O)[C@H](O)[C@@H]1O [lividomycin A] | can block the binding | – |
